Source: US20240261258A1, “Presurgical Perineural Administration of Resiniferatoxin For Reduction of Post-Operative Pain” (Sorrento Therapeutics, Inc., priority 2021, published 2024)
Several values for one entry are separate records, joined by “and”; a condition that tells them apart may be missing. Equal entries are not always repeated.

Experiment: RTX plasma concentrations after nerve block or local application
Assay type: in vivo, dog
Set-up: Plasma concentration: unit not given here
Description: Fourteen adult female beagle dogs, weighing 11.9±0.6 kg and between 3-5 years of age, were enrolled in this study. Each animal was randomly assigned to one of four groups. Four dogs (group 1) received a femoral and sciatic nerve block with 12.5 μg RTX per nerve (25 μg RTX total) diluted with sterile saline for a total volume of 2 mL (half volume per block). Another four dogs (group 2) received a femoral and a sciatic nerve block with 3.12 μg RTX per nerve block (6.25 μg RTX total) diluted with sterile saline for a total volume of 2 mL (half volume per block). Group 3 (4 animals) received a femoral and sciatic nerve block with 5 mg bupivacaine total (standard of care) plus a total of 50 μg RTX (total volume of 4 mL, concentration 12.5 μg/mL) applied locally to the cut on the tibia for 10 min. Group 4 (2 animals) was the control group and received a femoral and a sciatic nerve block with 5 mg bupivacaine total (standard of care).
Blood (4-5 mL) was collected at the beginning of the study for complete blood count and chemistry parameters. Another 2 mL sample was collected at time 0 (baseline), 5, 15, 45, 60, and 90 minutes, and at 2, 3, 4, 6, and 8 hours after RTX administration for pharmacokinetic analysis to determine how plasma levels of RTX change over time. Dog plasma samples were extracted using an organic solvent mixture, dried under nitrogen, reconstituted and analyzed by reversed-phase HPLC. The mobile phase was nebulized using heated nitrogen in a Z-spray source/interface set to electrospray positive ionization mode. The ionized compounds are detected using tandem mass spectrometry or MS/MS.
RTX Plasma concentrations (pg/mL) were measured in the dogs following administration of RTX solution as femoral and sciatic nerve blocks.

C=C(C)[C@]12C[C@@H](C)[C@@]34O[C@](Cc5ccccc5)(O[C@@H]1[C@@H]3C=C(COC(=O)Cc1ccc(O)c(OC)c1)C[C@]1(O)C(=O)C(C)=C[C@@H]41)O2 [RTX, resiniferatoxin]
Plasma concentrations for RTX (Group 1 High Dose, 25 μg total F/Sc nerve block, 45 min, dogs 0271, 2968, 3837, 5635 in c3-c6): BQL (BQL—Below the Quantifiable Limit < 50.0 pg/mL)
Plasma concentrations for RTX (Group 1 High Dose, 25 μg total F/Sc nerve block, 60 min, dogs 0271, 2968, 3837, 5635 in c3-c6): BQL (BQL—Below the Quantifiable Limit < 50.0 pg/mL)
Plasma concentrations for RTX (Group 1 High Dose, 25 μg total F/Sc nerve block, 6 h, dogs 0271, 2968, 3837, 5635 in c3-c6): 0.0941 ng/mL and 0.182 ng/mL and 0.13 ng/mL
Plasma concentrations for RTX (Group 1 High Dose, 25 μg total F/Sc nerve block, 8 h, dogs 0271, 2968, 3837, 5635 in c3-c6): 0.0623 ng/mL and 0.117 ng/mL and 0.0991 ng/mL
Plasma concentrations for RTX (Group 1 High Dose, 25 μg total F/Sc nerve block, Predose, dogs 0271, 2968, 3837, 5635 in c3-c6): BQL (BQL—Below the Quantifiable Limit < 50.0 pg/mL)
Plasma concentrations for RTX (Group 2 Low Dose, 6.25 μg total F/Sc nerve block, 0 min, dogs 2561, 3743, 4681, 5686 in c3-c6): BQL (BQL—Below the Quantifiable Limit < 50.0 pg/mL)
Plasma concentrations for RTX (Group 2 Low Dose, 6.25 μg total F/Sc nerve block, 5 min, dogs 2561, 3743, 4681, 5686 in c3-c6): BQL (BQL—Below the Quantifiable Limit < 50.0 pg/mL)
Plasma concentrations for RTX (Group 2 Low Dose, 6.25 μg total F/Sc nerve block, 15 min, dogs 2561, 3743, 4681, 5686 in c3-c6): BQL (BQL—Below the Quantifiable Limit < 50.0 pg/mL)
Plasma concentrations for RTX (Group 2 Low Dose, 6.25 μg total F/Sc nerve block, 45 min, dogs 2561, 3743, 4681, 5686 in c3-c6): BQL (BQL—Below the Quantifiable Limit < 50.0 pg/mL)
Plasma concentrations for RTX (Group 2 Low Dose, 6.25 μg total F/Sc nerve block, 60 min, dogs 2561, 3743, 4681, 5686 in c3-c6): BQL (BQL—Below the Quantifiable Limit < 50.0 pg/mL)
Plasma concentrations for RTX (Group 2 Low Dose, 6.25 μg total F/Sc nerve block, 6 h, dogs 2561, 3743, 4681, 5686 in c3-c6): BQL (BQL—Below the Quantifiable Limit < 50.0 pg/mL)
Plasma concentrations for RTX (Group 2 Low Dose, 6.25 μg total F/Sc nerve block, 8 h, dogs 2561, 3743, 4681, 5686 in c3-c6): BQL (BQL—Below the Quantifiable Limit < 50.0 pg/mL)
Plasma concentrations for RTX (Group 2 Low Dose, 6.25 μg total F/Sc nerve block, Predose, dogs 2561, 3743, 4681, 5686 in c3-c6): BQL (BQL—Below the Quantifiable Limit < 50.0 pg/mL)
Plasma concentrations for RTX (Group 3 Local, 50 μg on bone incision, 0 min, dogs 2272, 3007, 3722, 9501 in c3-c6): BQL (BQL—Below the Quantifiable Limit < 50.0 pg/mL)
Plasma concentrations for RTX (Group 3 Local, 50 μg on bone incision, 5 min, dogs 2272, 3007, 3722, 9501 in c3-c6): BQL (BQL—Below the Quantifiable Limit < 50.0 pg/mL)
Plasma concentrations for RTX (Group 3 Local, 50 μg on bone incision, 15 min, dogs 2272, 3007, 3722, 9501 in c3-c6): BQL (BQL—Below the Quantifiable Limit < 50.0 pg/mL)
Plasma concentrations for RTX (Group 3 Local, 50 μg on bone incision, 45 min, dogs 2272, 3007, 3722, 9501 in c3-c6): BQL (BQL—Below the Quantifiable Limit < 50.0 pg/mL)
Plasma concentrations for RTX (Group 3 Local, 50 μg on bone incision, 60 min, dogs 2272, 3007, 3722, 9501 in c3-c6): BQL (BQL—Below the Quantifiable Limit < 50.0 pg/mL)
Plasma concentrations for RTX (Group 3 Local, 50 μg on bone incision, 90 min, dogs 2272, 3007, 3722, 9501 in c3-c6): BQL (BQL—Below the Quantifiable Limit < 50.0 pg/mL)
Plasma concentrations for RTX (Group 3 Local, 50 μg on bone incision, 2 h, dogs 2272, 3007, 3722, 9501 in c3-c6): BQL (BQL—Below the Quantifiable Limit < 50.0 pg/mL)
Plasma concentrations for RTX (Group 3 Local, 50 μg on bone incision, 3 h, dogs 2272, 3007, 3722, 9501 in c3-c6): BQL (BQL—Below the Quantifiable Limit < 50.0 pg/mL)
Plasma concentrations for RTX (Group 3 Local, 50 μg on bone incision, 4 h, dogs 2272, 3007, 3722, 9501 in c3-c6): BQL (BQL—Below the Quantifiable Limit < 50.0 pg/mL)
Plasma concentrations for RTX (Group 3 Local, 50 μg on bone incision, 6 h, dogs 2272, 3007, 3722, 9501 in c3-c6): BQL (BQL—Below the Quantifiable Limit < 50.0 pg/mL)
Plasma concentrations for RTX (Group 3 Local, 50 μg on bone incision, 8 h, dogs 2272, 3007, 3722, 9501 in c3-c6): BQL (BQL—Below the Quantifiable Limit < 50.0 pg/mL)
Plasma concentrations for RTX (Group 3 Local, 50 μg on bone incision, Predose, dogs 2272, 3007, 3722, 9501 in c3-c6): BQL (BQL—Below the Quantifiable Limit < 50.0 pg/mL)
Plasma concentration (Subject 2968 (group 1), 2 hour timepoint): 1790
RTX plasma levels (all dogs that received the local application (50 μg)): below the quantifiable limit at all timepoints
concentration at 90 min (female, beagle, dog, plasma, 6.25 μg, Group 2 Low Dose, 6.25 μg total F/Sc nerve block, 90 min, dogs 2561, 3743, 4681, 5686 in c3-c6): 0.085 ng/mL
concentration at 2 h (female, beagle, dog, plasma, 6.25 μg, Group 2 Low Dose, 6.25 μg total F/Sc nerve block, 2 h, dogs 2561, 3743, 4681, 5686 in c3-c6): 0.0607 ng/mL
concentration at 3 h (female, beagle, dog, plasma, 6.25 μg, Group 2 Low Dose, 6.25 μg total F/Sc nerve block, 3 h, dogs 2561, 3743, 4681, 5686 in c3-c6): 0.0847 ng/mL
concentration at 4 h (female, beagle, dog, plasma, 6.25 μg, Group 2 Low Dose, 6.25 μg total F/Sc nerve block, 4 h, dogs 2561, 3743, 4681, 5686 in c3-c6): 0.0506 ng/mL
concentration at 0 min (female, beagle, dog, plasma, 25 μg, Group 1 High Dose, 25 μg total F/Sc nerve block, 0 min, dogs 0271, 2968, 3837, 5635 in c3-c6): 0.397 ng/mL
concentration at 5 min (female, beagle, dog, plasma, 25 μg, Group 1 High Dose, 25 μg total F/Sc nerve block, 5 min, dogs 0271, 2968, 3837, 5635 in c3-c6): 0.1 ng/mL
concentration at 15 min (female, beagle, dog, plasma, 25 μg, Group 1 High Dose, 25 μg total F/Sc nerve block, 15 min, dogs 0271, 2968, 3837, 5635 in c3-c6): 0.0964 ng/mL
concentration at 90 min (female, beagle, dog, plasma, 25 μg, Group 1 High Dose, 25 μg total F/Sc nerve block, 90 min, dogs 0271, 2968, 3837, 5635 in c3-c6): 0.0551 ng/mL
concentration at 6 h (female, beagle, dog, plasma, 25 μg, Group 1 High Dose, 25 μg total F/Sc nerve block, 6 h, dogs 0271, 2968, 3837, 5635 in c3-c6): 0.105 ng/mL
concentration at 8 h (female, beagle, dog, plasma, 25 μg, Group 1 High Dose, 25 μg total F/Sc nerve block, 8 h, dogs 0271, 2968, 3837, 5635 in c3-c6): 0.0656 ng/mL
RTX plasma levels at last time point (high dose group (25 μg total nerve block)): still detectable at 8 hours
Time after which RTX plasma levels fell to below detectable (low dose group (6.25 μg total nerve block)): 3 to 4 h
Time after administration until plasma levels of RTX reached detectable levels (nerve block, regardless of dose, except one dog in group 1 (subject 5635)): at least 90 minutes
